Measurements from patent publication US11559490B2, “Pharmaceutical formulation” (Merck Patent GmbH, priority 2017, dated 2023).

Assays:
[1] = test system: A549; settings: 150 mg/kg oral, 10 min prior to each 2 Gy fraction, 5 days (10 Gy)
Experimental: (§1) The therapeutic relevance of DNA-PK inhibition by the drug substance as such was investigated in vivo in combination with ionizing radiation (IR), a clinically established DSB-inducing treatment. The drug substance was tested for activity in six xenograft mouse models of human cancer. The models were chosen from different cancer indications (colon, lung, head and neck, pancreatic), and histological subtypes (adeno, squamous, large cell). Ionizing radiation was administered using a fractionated schedule of 2 Gy per day administered over five consecutive days (total radiation dose=10 Gy). […] 10 min prior to each fraction of radiation (ONC397-1-2AZ, ONC397-1-3AZ, ONC397-1-4AZ, ONC397-1-5AZ, ONC397-1-8AZ).
(§2) The radiotherapy enhancing effect was quantified across the tested models by the time to reaching 400% initial volume for the 150 mg/kg study arms. The resulting Kaplan-Meier plots were compared by the log-rank test.

[2] = test system: NCI-H460; settings: 150 mg/kg oral, 10 min prior to each 2 Gy fraction, 5 days (10 Gy)
Experimental: as §1, §2

[3] = test system: HCT116; settings: 150 mg/kg oral, 10 min prior to each 2 Gy fraction, 5 days (10 Gy)
Experimental: as §1, §2

[4] = test system: six xenograft mouse models of human cancer; assay: Xenograft mouse models of human cancer, combination with ionizing radiation; assay type: in vivo; settings: all models, oral administration with fractionated radiation 2 Gy x 5
Experimental: as §1, §2

[5] = test system: DNA-PK autophosphorylation in cancer cell lines; settings: cited from earlier work
[6] = biological target: DNA-dependent protein kinase (DNA-PK) (Homo sapiens, UniProt P78527); settings: cited from earlier work
[7] = Solubility of drug substance in water and simulated gastric fluids; assay type: physicochemical

COc1ccc([C@@H](O)c2cc(-c3ncnc4cc(N5CCOCC5)ccc34)c(F)cc2Cl)nn1 [drug substance, (S)-[2-chloro-4-fluoro-5-(7-morpholin-4-yl-quinazolin-4-yl)phenyl]-(6-methoxy-pyridazin-3-yl)methanol]
enhancement ratio (time to reaching 400% initial volume) [1]: 1.5 | enhancement ratio (time to reaching 400% initial volume) [2]: 2.6 | enhancement ratio (time to reaching 400% initial volume) [3]: 1.5 | enhancement of the radiation effect [4]: strong enhancement of the radiation effect | inhibition of DNA-PK autophosphorylation [5]: potent inhibition | inhibition of DNA-PK activity [6]: potent and selective inhibitor | solubility in water and simulated gastric fluids [7]: poor solubility
